Values of other authors as cited in patent publication US6774131B1, “Remedies for endothelin-induced diseases” (Yamanouchi Pharmaceutical Co., Ltd., priority 2000, dated 2004).

Tests used:
[1] = tested on: prostate cancer patients; conditions: reported, Proceeding of ASCO,19,1314,2000; cited from earlier work
[2] = 20 mg; 6th International Conference on Endothelin, Abstract No. 219; cited from earlier work

In the case of `CCCCN(CCCC)C(=O)CN1C[C@H](c2ccc3c(c2)OCO3)[C@@H](C(=O)O)[C@@H]1c1ccc(OC)cc1` [ABT-627, 1-(N,N-dibutylcarbamoylmethyl)-2(R)-(4-methoxyphenyl)-4(S)-(3,4-methylenedioxyphenyl)pyrrolidine-3(R)-carboxylic acid], the minimum effective dose [1] is listed as 10 mg, the AUC [2] is listed as 802 ng·h/mL and the Cmax [2] is listed as 93.5 ng/mL. For the same molecule, the T max [2] was 0.6 h and the “T ½” value [2] was 28.4 h.
